ChEMBL document CHEMBL3826903, “Extended rhodamine photosensitizers for photodynamic therapy of cancer cells” (Bioorg Med Chem, 2016)

Experiments:
[1] = Induction of singlet oxygen assessed as quantum yields for generation of singlet oxygen by luminescence spectroscopy; assay type: physicochemical
[2] = Drug localization in mitochondria of human HUT78 cells assessed as bright detail similarity scores at 0.2 uM incubated for 15 mins in presence of MTG by flow cytometry; assay type: ADME; details: hut78, 0.25 h
[3] = Dark toxicity against mouse Colon 26 cells assessed as cell survival fraction incubated for 1 hr in dark measured after 48 hrs by SRB assay; assay type: cell-based; details: read-out: LD50
[4] = Therapeutic index, ratio of LD50 for dark toxicity against mouse Colon 26 cells to EC50 for phototoxicity against mouse Colon 26 cells at 1 Jcm'-2 of irradiation with 660 +/- 2 nm nm light; assay type: cell-based; details: read-out: Ratio LD50/EC50
[5] = Drug localization in mitochondria of mouse Colon 26 cells assessed as bright detail similarity scores at 0.2 uM incubated for 15 mins in presence of MTG by flow cytometry; assay type: ADME; details: colon 26, 0.25 h
[6] = system: Colon 26; experiment: Phototoxicity against mouse Colon 26 cells assessed as cell survival fraction incubated for 1 hr in dark followed by irradiation with 1 J/cm'-2 light from tunable dye laser at 660 +/- 2 nm measured after 48 hrs by SRB assay; assay type: functional, cell-based; details: Colon 26, light or radiation study
[7] = system: Colon 26; experiment: Dark toxicity against mouse Colon 26 cells assessed as cell survival fraction at 1 uM incubated for 1 hr in dark measured after 48 hrs by SRB assay; assay type: cell-based; details: colon 26, 1 µM
[8] = system: Colon 26; experiment: Phototoxicity against mouse Colon 26 cells assessed as cell survival fraction incubated for 1 hr in dark followed by irradiation with 5 J/cm'-2 light from tunable dye laser at 690 +/- 2 nm measured after 48 hrs by SRB assay; assay type: functional, cell-based; details: Colon 26, light or radiation study
[9] = Therapeutic index, ratio of LD50 for dark toxicity against mouse Colon 26 cells to EC50 for phototoxicity against mouse Colon 26 cells at 5 Jcm'-2 of irradiation with 690 +/- 2 nm light; assay type: cell-based; details: read-out: Ratio LD50/EC50
[10] = Therapeutic index, ratio of LD50 for dark toxicity against mouse Colon 26 cells to EC50 for phototoxicity against mouse Colon 26 cells at 10 Jcm'-2 of irradiation with 690 +/- 2 nm light; assay type: cell-based; details: read-out: Ratio LD50/EC50
[11] = system: Colon 26; experiment: Phototoxicity against mouse Colon 26 cells assessed as cell survival fraction incubated for 1 hr in dark followed by irradiation with 10 J/cm'-2 light from tunable dye laser at 690 +/- 2 nm measured after 48 hrs by SRB assay; assay type: functional, cell-based; details: Colon 26, light or radiation study
[12] = system: Colon 26; experiment: Phototoxicity against mouse Colon 26 cells assessed as cell survival fraction incubated for 1 hr in dark followed by irradiation with 1 J/cm'-2 light from tunable dye laser at 642 +/- 2 nm measured after 48 hrs by SRB assay; assay type: functional, cell-based; details: Colon 26, light or radiation study
[13] = Therapeutic index, ratio of LD50 for dark toxicity against mouse Colon 26 cells to EC50 for phototoxicity against mouse Colon 26 cells at 5 Jcm'-2 of irradiation with 700 +/- 2 nm light; assay type: cell-based; details: read-out: Ratio LD50/EC50
[14] = system: Colon 26; experiment: Phototoxicity against mouse Colon 26 cells assessed as cell survival fraction incubated for 1 hr in dark followed by irradiation with 10 J/cm'-2 light from tunable dye laser at 700 +/- 2 nm measured after 48 hrs by SRB assay; assay type: functional, cell-based; details: Colon 26, light or radiation study
[15] = system: Colon 26; experiment: Phototoxicity against mouse Colon 26 cells assessed as cell survival fraction incubated for 1 hr in dark followed by irradiation with 5 J/cm'-2 light from tunable dye laser at 700 +/- 2 nm measured after 48 hrs by SRB assay; assay type: functional, cell-based; details: Colon 26, light or radiation study
[16] = Therapeutic index, ratio of LD50 for dark toxicity against mouse Colon 26 cells to EC50 for phototoxicity against mouse Colon 26 cells at 10 Jcm'-2 of irradiation with 700 +/- 2 nm light; assay type: cell-based; details: read-out: Ratio LD50/EC50

Structure (SMILES): CN(C)c1ccc2c(-c3ccccc3)c3ccc4cc(=[N+](C)C)ccc4c3[se]c2c1.F[P-](F)(F)(F)(F)F
- Singlet oxygen quantum yield [1]: 0.65
- Drug uptake [2]: 2.458
- CC50 at 1 h [3]: > 1000 nM
- selectivity ratio [4]: > 15
- Drug uptake [5]: 1.38
- EC50 [6]: 64 nM
- Activity [7]: Non-toxic

Structure (SMILES): CN(C)c1ccc2c(-c3ccccc3)c3cc4ccc(=[N+](C)C)cc4cc3sc2c1.F[P-](F)(F)(F)(F)F
- EC50 [8]: 140 nM
- Singlet oxygen quantum yield [1]: < 0.05
- Drug uptake [2]: 2.153
- selectivity ratio [9]: 3.3
- CC50 at 1 h [3]: 460 nM
- Drug uptake [5]: 1.2
- selectivity ratio [10]: 5.1
- EC50 [11]: 90 nM
- Activity [7]: Toxic

Structure (SMILES): CN(C)c1ccc2c(-c3ccccc3)c3ccc4cc(=[N+](C)C)ccc4c3sc2c1.F[P-](F)(F)(F)(F)F
- Singlet oxygen quantum yield [1]: 0.15
- Drug uptake [2]: 2.82
- EC50 [12]: 280 nM
- Drug uptake [5]: 1.77
- Activity [7]: Non-toxic

Structure (SMILES): CN(C)c1ccc2c(-c3ccccc3)c3cc4ccc(=[N+](C)C)cc4cc3[se]c2c1.F[P-](F)(F)(F)(F)F
- Singlet oxygen quantum yield [1]: < 0.05
- Drug uptake [2]: 0.683
- selectivity ratio [13]: 8.3
- EC50 [14]: 180 nM
- CC50 at 1 h [3]: 2000 nM
- Drug uptake [5]: 0.7204
- EC50 [15]: 240 nM
- selectivity ratio [16]: 11
- Activity [7]: Toxic
